Source: patent US20240268372A1, “Methods and Compositions for Extending Organ and Tissue Preservation” (The General Hospital Corporation, priority 2021, published 2024)

Key:
whole rat livers [1] = assay: Optimized partial freezing of whole rat livers: SNMP recovery after freezing; conditions: −10° C., 1 day; at 3 h
Procedure: (§1) Within this standardized protocol, we first compared GLY, EG, and PG as main permeating CPA using a freezing temperature of −10° C. and storage duration of 1 day (FIG. 37). Using PG as the CPA, we subsequently tested the effect of freezing temperature (−10° C. vs −15° C.) and storage duration (1 day vs 5 days) on liver viability after partial freezing using the same protocol (FIG. 38).
Machine perfusion system: The perfusion system provides a continuous perfusion through the portal vein that is pressure, flow, and temperature controlled. The perfusates can be either recirculated or flushed with a single pass though the liver and perfusates can be changed without interrupting perfusion. The setup and operation of the perfusion system is described in detail elsewhere (see, e.g., ref. 15). There were two oxygenators used in this study, including the Radnoti (Cat #130144) and Affinity Pixie Oxygenator (Cat #BBP241). Due to the flexibility and low cost of the Radnoti oxygenator, it was first used for initial optimization and characterization studies, including determining the effect of permeating CPAs (GLY vs EG vs PG; FIG. 37), temperature (−10 vs −15° C., FIG. 38) storage duration (1 vs 5 days, FIG. 38), and warm ischemic injury. Once the major aspects of the protocol were optimized and characterized, we used the clinical grade Affinity Pixie Oxygenator. […]

rat livers = assay: Initial partial freezing protocol of rat livers at −6° C., SNMP recovery; conditions: glycerol 6% vol/vol with Snomax 1 g/L, 3-OMG 200 mM, PEG 5%
whole rat livers [2] = assay: Optimized partial freezing of whole rat livers: ex vivo simulated transplantation (normothermic reperfusion with whole blood); conditions: −10° C., 1 day
Procedure: as §1
The Affinity Pixie Oxygenator is a clinical grade oxygenator that has graduated fiber bundle density technology and radial flow path that is designed to create a more uniform blood flow, enhance gas transfer, reduce pressure drops, and decrease prime volume. Moreover, it also contains a Balance® Biosurface that contains a hydrophilic polymer coating to reduce platelet adhesion and activation. This adaptation to the oxygenator is essential since recirculating whole blood during simulated transplantation may trigger coagulation and inflammatory events that are not representative of in vivo events and could skew observed outcomes.
Machine perfusion system: The perfusion system provides a continuous perfusion through the portal vein that is pressure, flow, and temperature controlled. The perfusates can be either recirculated or flushed with a single pass though the liver and perfusates can be changed without interrupting perfusion. The setup and operation of the perfusion system is described in detail elsewhere (see, e.g., ref. 15). There were two oxygenators used in this study, including the Radnoti (Cat #130144) and Affinity Pixie Oxygenator (Cat #BBP241). Due to the flexibility and low cost of the Radnoti oxygenator, it was first used for initial optimization and characterization studies, including determining the effect of permeating CPAs (GLY vs EG vs PG; FIG. 37), temperature (−10 vs −15° C., FIG. 38) storage duration (1 vs 5 days, FIG. 38), and warm ischemic injury.
Preconditioning during SNMP: Directly after procurement the livers were perfused with 250 ml of SNMP preloading solution (see Table 7 for composition of all solutions). The perfusion temperature was set at 21° C. and perfusion was initiated at 5 ml/min. […] Next, the livers were perfused for 30 additional minutes to allow for cellular uptake of 3-O-methyl-D-glucose (3-OMG).
Preloading of CPAs during HMP: The SNMP preloading solution was gradually switched to HMP preloading solution in […] increments, each with 10% decreasing and 10% increasing volumetric fractions of SNMP and HMP preloading solution, respectively. During this switch, the perfusion temperature was lowered to 4° C., and flows were adjusted to a maximum perfusion pressure of 3 mmHg. Dependent on the flowrate, the solution switch took 10-15 minutes. The HMP preloading was continued for 30 additional minutes to ensure complete equilibration of the solution throughout the peripheral liver tissue.
This was done in 10 fractions of 10 ml, each with 10% decreasing and 10% increasing volumetric fractions of HMP preloading solution and storage solution, respectively. During this switch, the perfusion temperature was maintained at 4° C., and the flowrates were lowered to ensure a maximum perfusion pressure of 3 mmHg. The final 15 ml fraction of 100% storage solution was loaded at a fixed flowrate of 0.5 ml/min.
Partial freezing: After loading of the storage solution, the liver was placed in a bag with 50 ml fresh storage solution and suspended in a pre-cooled chiller (Engel, Schwertberg, Austria). Depending on the experimental condition the chiller temperature was pre-cooled to −10° C. or −15° C. and the liver stored for […] 5 days.

OCC(O)CO [GLY, glycerol]
weight gain during SNMP recovery (whole rat livers [1]): 35.00±20.49% | vascular resistance (mean±SD) (rat livers): 0.11±0.05 mmHg*min/ml*g | edema (rat livers; one-step hand syringe loading): > 60% | bile production during simulated transplantation (whole rat livers [2]): did not produce bile | lactate clearance after first hour of simulated transplantation (whole rat livers [2]): not observed | microscopic tissue structure (H&E, blinded pathologist) (whole rat livers [2]): most unfavorable results | oxygen uptake during simulated transplantation (whole rat livers [2]; at 2 h): 17.9 ± 5.86 µL O2/min/g | tissue adenylate energy charge (whole rat livers [2]; at 2 h): 0.064±0.039 | weight gain during simulated transplantation (whole rat livers [2]; at 2 h): 19.00±16.63% | AST levels (whole rat livers [2]; at 2 h of simulated transplantation): 1528±388 U/L
